± gives the expanded uncertainty stated by the source.
What was measured:
[1] = DTA
[2] = molar heat capacity at constant pressure; conditions: 101.33 kPa, Liquid

With `CCCCn1cc[n+](C)c1.COS(=O)(=O)[O-]` [1-butyl-3-methylimidazolium methyl sulfate] the Normal melting temperature ([1]; Crystal) was -4.10 ± 1 °C, the Glass transition temperature [1] was -91.90 ± 3 °C and the “molar heat capacity at constant pressure” value ([2]; 283.1 K) was 226.29 ± 91 J/K/mol. The “molar heat capacity at constant pressure” value ([2]; 293.15 K) was 246.56 ± 99 J/K/mol, the “molar heat capacity at constant pressure” value ([2]; 303.15 K) was 266.84 ± 110 J/K/mol and the “molar heat capacity at constant pressure” value ([2]; 313.15 K) was 287.11 ± 120 J/K/mol. The “molar heat capacity at constant pressure” value ([2]; 323.15 K) was 307.39 ± 120 J/K/mol, the “molar heat capacity at constant pressure” value ([2]; 333.15 K) was 327.66 ± 130 J/K/mol and the “molar heat capacity at constant pressure” value ([2]; 343.15 K) was 347.94 ± 140 J/K/mol. For the same molecule, the “molar heat capacity at constant pressure” value ([2]; 353.15 K) was 368.22 ± 150 J/K/mol, the “molar heat capacity at constant pressure” value ([2]; 363.15 K) was 388.49 ± 160 J/K/mol and the “molar heat capacity at constant pressure” value ([2]; 373.1 K) was 408.77 ± 160 J/K/mol.

In the case of `CCOS(=O)(=O)[O-].CCn1cc[n+](C)c1` [1-ethyl-3-methylimidazolium ethyl sulfate], the Glass transition temperature [1] is reported as -78.40 ± 3 °C, the “molar heat capacity at constant pressure” value ([2]; 283.1 K, Small sample (50 mg) DSC) is reported as 387.04 ± 160 J/K/mol and the “molar heat capacity at constant pressure” value ([2]; 293.15 K, Small sample (50 mg) DSC) is reported as 409.73 ± 160 J/K/mol. For the same molecule, the “molar heat capacity at constant pressure” value ([2]; 303.15 K, Small sample (50 mg) DSC) was 432.41 ± 170 J/K/mol, the “molar heat capacity at constant pressure” value ([2]; 313.15 K, Small sample (50 mg) DSC) was 455.09 ± 180 J/K/mol and the “molar heat capacity at constant pressure” value ([2]; 323.15 K, Small sample (50 mg) DSC) was 477.78 ± 190 J/K/mol. For the same molecule, the “molar heat capacity at constant pressure” value ([2]; 333.15 K, Small sample (50 mg) DSC) was 500.46 ± 200 J/K/mol, the “molar heat capacity at constant pressure” value ([2]; 343.15 K, Small sample (50 mg) DSC) was 523.15 ± 210 J/K/mol and the “molar heat capacity at constant pressure” value ([2]; 353.15 K, Small sample (50 mg) DSC) was 545.83 ± 220 J/K/mol. For the same molecule, the “molar heat capacity at constant pressure” value ([2]; 363.15 K, Small sample (50 mg) DSC) was 568.51 ± 230 J/K/mol and the “molar heat capacity at constant pressure” value ([2]; 373.1 K, Small sample (50 mg) DSC) was 591.2 ± 240 J/K/mol.

Source: the NIST ThermoML archive (doi:10.1021/je7002786)
